The subject of assay [1] is LNCaP Pro 5 prostate cancer cells. Description: Enhancement of direct cellular injury by freeze/thaw after TNF-alpha exposure, LNCaP Pro 5. Format: cell-based, human.
Assay [2] relates to normal nude mouse hypodermis (normal skin). Description: Cryosurgery of TNF-alpha pre-inflamed normal skin in dorsal skin flap chamber (DSFC). Format: in vivo.
Assay [3] deals with MCF-7 breast cancer cells. As to the kind of experiment: Enhancement of direct cellular injury by freeze/thaw after TNF-alpha exposure, MCF-7. In kind it is cell-based.
In assay [4] the test system is LNCaP Pro 5 human prostate cancer tumor tissue. As to the kind of experiment: Cryosurgery of TNF-alpha pre-inflamed LNCaP Pro 5 tumor in dorsal skin flap chamber (DSFC). In kind it is in vivo, male athymic nude mice. On the procedure:
The dorsal skin flap chamber (DSFC) of male athymic nude mice was seeded with the tumor LNCaP […] human prostate cancer, inflamed with TNF-alpha, subjected to cryosurgery, and assessed according to the following procedure. The dorsal skin of a male athymic nude mouse was sandwiched between two identical anodized aluminum frames, a 19 millimeter (mm) by 22 mm chamber was mounted onto the mouse by three screws, the skin was attached to the chamber with 4-O silk using suture holes, and the skin on the side of the viewing region was removed, exposing the dermis containing the microvasculature on the opposite side of the skin. To provide chambers having tumors, approximately 5×10^6LNCaP […] human prostate tumor cells were mixed with MATRIGEL matrix (BD Biosciences, Bedford, Mass.) as described by Lim et al. (Prostate, 22:109-118 (1993)). Approximately 30 μl of the cell suspension was applied to the surface of the microvascular bed immediately after the initial chamber implantation and the tumor was allowed to grow for 10 days, the skin reaching a total thickness of about 450 micrometers (μm) and the tumor extending approximately 10 mm in diameter. […] After four (4) hours, the mouse was anesthetized, TNF-alpha-induced inflammation was measured by observation of leukocyte rolling, and thereafter cryosurgery was immediately performed in the inflamed tissue. […] The temperature at each thermocouple was recorded using a HYDRA DATA LOGGER SERIES 2 (Fluke, Everett, Wash.). […] The dorsal skin flap chamber was then illuminated with a mercury lamp and a FITC signal-enhancing filter (λ=470-490 nm) to view the contrast fluorescence. A Silicon Intensified Transmission camera (Hamamatsu, North Central Instruments, Twin Cities, Minn.) was used to detect the fluorescent signal, and the signal was recorded with a JVC S-VHS video recorder (JVC Company of America, Aurora, Ill.). […] The end temperature of the cryolesion and the thermal parameters within the cryosurgical ice ball were calculated according to the methods of Chao et al. (Cryobiology, 2004 (in press)). […]

In assay [5] the test system is Human dermal microvascular endothelial cells (MVEC). Description: Enhancement of direct cellular injury by freeze/thaw after TNF-alpha exposure, MVEC. In kind it is cell-based. On the procedure: Cell suspensions of human endothelial cells (MVECs) were used to assess the enhancement of direct cellular injury (DCI) by use of an adjuvant, wherein the adjuvant used is TNF-alpha.
Human dermal microvascular endothelial cells (MVEC) were prepared and grown as adherent monolayers as described by Gupta et al., Experimental Cell Research, 230:244-251 (1997), maintained in a 37° C./5% CO2/95% humidified air environment in T-flasks pre-coated with 1% gelatin in MCDB 131 medium supplemented with 20% heat-inactivated human male serum, hydrocortisone, cAMP, L-glutamine, heparin, endothelial cell growth supplement (Vec Tec, Schenectady, N.Y.) and antibiotics. […]
Control and experimental F/T groups were then assessed for cell viability at varying time points starting 3 hours after intervention. Cell viability was measured microscopically by a fluorescent dye assay (cell viability assay) by an apoptotic/necrotic assay.
The fluorescent dye assay was used to assess the plasma membrane integrity of cells immediately before (control) and after F/T using Hoechst 33342 and propidium iodide (PI). […] Cells were incubated with 9 μM Hoechst 33342 and 7 μM PI for 15 minutes at 37° C., placed on a microslide, cover-slipped and the percentage of dead cells/field determined at 200X using a fluorescent microscope (Olympus BX-50, Tokyo, Japan). […]

Where [6] appears, read: TNF-alpha 10 ng/ml to 1 μg/ml for 4 to 48 hours before freeze/thaw.

Entries after “also recorded” stand apart in the source; their conditions may differ.

Consider TNF-alpha, for which the “cryosensitivity of cells in vitro” value in assay [1] (setting [6]), in assay [3] (setting [6]) and in assay [5] (setting [6]) was “increase cryosensitivity” throughout. The “necrosis of inflamed cells in vitro” value in assay [1] (apoptosis/necrosis assay), in assay [3] (apoptosis/necrosis assay) and in assay [5] (apoptosis/necrosis assay) was “increased necrosis” each time. Moreover, the “minimum temperature required for cryo-destruction” value in assay [2] (TNF-alpha-treated normal skin) was −9.8±5.8 °C. The “position of the edge of the static zone relative to the edge of the ice ball” value was “stayed within the edge of the ice ball; also recorded: moved the edge of the static zone closer to the edge of the cryosurgical ice ball” in assay [2] (inflamed normal skin tissues treated with TNF-alpha) and “extended beyond the edge of the ice ball” in assay [4] (LNCaP Pro 5 tumor tissues treated with TNF-alpha). Moreover, the “radius of the edge of the static zone (zone of vascular stasis)” value in assay [2] (normal nude mouse hypodermis treated with TNF-alpha, day 3 post cryosurgery) was 3.99±0.13 mm; in assay [4] (day 3 post cryosurgery, LNCaP Pro 5 tumor tissue, local 0.2 ng TNF-alpha 4 hours before cryosurgery), 4.07±0.34 mm. For the same substance, in assay [4] (local use of TNF-alpha, LNCaP Pro 5 tumor tissue), the “increase of the threshold temperature of cryo-destruction versus tissue without TNF-alpha” value was “more than 10 °C”.

Values taken from patent US7344531B2, “Thermal surgical procedures and compositions” (Regents of the University of Minnesota, priority 2003, dated 2008).
